Data on 6 compounds can be found in paper PMC6941357, “An in vitro toolbox to accelerate anti-malarial drug discovery and development” (Malaria Journal, 2020).

In brackets after ≈: the same amount, converted by molar mass. Several values for one entry are separate records, joined by “and”; a condition that tells them apart may be missing. Identical values can stand only once. Like-named read-outs stand apart in the source and are kept apart here.

Data set [1] is described as follows: In vitro metabolism (metabolic stability) in human liver microsomes. The note with it: human, pH 7.4, HLM CLint. In outline:
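Intrinsic clearance (µL/min/mg protein) came from the first-order substrate-depletion rate in human liver microsomes, using only the initial log-linear phase where kinetics deviated. Samples were quenched at 2, 5, 15, 30 and 60 min and quantified by LC–MS. Unbound CLint was obtained by dividing by microsomal fu.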
In general terms: Microsomes from liver hold many membrane-bound enzymes, among them those of drug oxidation.

Data set [2] addresses T1, Albumax medium (lipid rich bovine serum albumin) (Bos taurus, UniProt P02769).
T1 construct: purchased Gibco, Thermo Fisher Scientific
In words: Binding in Albumax medium via ultracentrifugation. The data set is classed as in vitro ADME. The note with it: bovine. Put shortly:
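Unbound fraction (fu) taken as protein-free supernate concentration over total concentration after ultracentrifuging compound-spiked Albumax at 37 °C (5% or 10% CO2, or air). Analysis used 1:1 mixing with the opposite blank matrix against a common pH 7.4 calibration; degradation judged by start versus end Ctotal.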

The next data set deals with human plasma. The note with it: methods UF, ED, EP or not described per compound, ref [6]–[22] of Additional file 1; cited from earlier work.
Data set [3] can be described thus: Bidirectional permeability across Caco-2 cell monolayers. The note with it: human; for Papp A→B: Caco-2, pH 7.4, A–B Papp, matrix: pH 7.4 buffer. In outline: (§1)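 Donor and acceptor concentrations measured by LC–MS to give Papp, mass balance and efflux ratio (mean B–A over A–B Papp). Media were pH 7.4 HEPES-buffered HBSS or human plasma on both sides; for plasma, Papp used the donor fraction unbound. Donor contained 0.1% v/v DMSO.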

The next data set concerns Caco-2 cell monolayers. The description is as above. The note with it: matrix: pH 7.4 buffer. In outline: as §1
Data set [4] can be described thus: Solubility in biorelevant media. The note with it: thermodynamic from solid. In outline: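 LC–MS quantification of supernatants, after two centrifugations, in triplicate against calibration standards. Media: FaSSGF sampled at 1 h; FaSSIF-V2, FeSSIF-V2 and pH 7.4 PBS sampled at 5–6 h; all at 37 °C on an orbital mixer at 600 rpm.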
Data set [5] is described as follows: Ionization constants by potentiometric titration. It counts as physicochemical. The note with it: mean ± SD, n = 3 titrations; for pKa: aqueous solution (DMSO stock diluted 1:10 with water), read-out: Measured pKa. The protocol: The autotitrator was controlled by Tiamo software (Version 1.3). pH measurements were conducted using a Metrohm LL Micro glass electrode which was calibrated on the day of use with calibration standards at pH 2, 4, 7 and 10. All reagents were standardized (directly or indirectly) against potassium hydrogen phthalate (Sigma-Aldrich, A.C.S. Acidimetric Standard). Titrant solutions were protected from carbon dioxide absorption by flushing with nitrogen before sealing or by the incorporation of a drying tube filled with self-indicating soda lime into the titration reaction vessel set-up.
Aliquots were introduced directly into the titration vessel and diluted 1:10 with water (typical final compound concentration of 0.5 mM).

Where [6] appears, read: liver microsomes, human liver microsomes, average of n = 2 replicates, < 7 means < 15% loss over 60 min.
[7] abbreviates: FaSSGF, 37 °C, fassgf or other biorelevant.
The mark [8] stands for this setting: FaSSGF, FaSSIF-V2, FeSSIF-V2 and PBS pH 7.4, 37 °C, pH 7.4, aqueous buffer.
Where [9] appears, read: phosphate buffered saline pH 7.4, 37 °C, pH 7.4, aqueous buffer.

T1 sequence (P02769 25-607): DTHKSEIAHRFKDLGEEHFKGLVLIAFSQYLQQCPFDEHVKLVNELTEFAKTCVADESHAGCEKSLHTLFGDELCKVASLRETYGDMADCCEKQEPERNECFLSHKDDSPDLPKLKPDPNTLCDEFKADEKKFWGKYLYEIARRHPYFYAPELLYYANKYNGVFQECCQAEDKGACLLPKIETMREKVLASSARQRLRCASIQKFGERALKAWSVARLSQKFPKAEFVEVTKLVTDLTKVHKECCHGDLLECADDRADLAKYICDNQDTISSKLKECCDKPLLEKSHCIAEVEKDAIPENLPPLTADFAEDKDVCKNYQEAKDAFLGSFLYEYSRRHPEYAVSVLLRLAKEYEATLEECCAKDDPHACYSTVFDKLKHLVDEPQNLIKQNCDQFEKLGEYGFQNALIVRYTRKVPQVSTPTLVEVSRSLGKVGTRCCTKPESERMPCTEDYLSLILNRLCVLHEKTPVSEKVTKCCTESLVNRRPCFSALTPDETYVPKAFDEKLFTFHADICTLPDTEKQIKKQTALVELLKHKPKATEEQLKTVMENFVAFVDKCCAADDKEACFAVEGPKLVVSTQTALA

Take `C[C@H]1c2cccc(O)c2C(=O)C2=C(O)[C@]3(O)C(=O)C(C(N)=O)=C(O)[C@@H](N(C)C)[C@@H]3[C@@H](O)[C@@H]21` [Doxycyclin]: the microsomal CLint (usually a measure of how fast metabolising enzymes remove a compound, apart from limits set by blood flow) at 1 µM in data set [1] (setting [6]) was less than 7 µL/min/mg. The fraction unbound (usually the share of the substance not bound to proteins or other matrix) at […], 500 ng/mL in data set [2] (isolated protein, pH 7.4) came out at 0.41 ± 0.023. Also, the Literature fu in the data set with human plasma is 0.12. The Papp B→A (commonly the apparent permeability from the basolateral to the apical side of a cell layer) in data set [3] (Caco-2, pH 7.4) was determined as 4.2 ± 0.29 ×10⁻⁶ cm/s. In data set [3], the Papp A→B (in general, the apparent permeability from the apical to the basolateral side of a cell layer) is less than 5 ×10⁻⁶ cm/s. Further, the “A–B Papp” value with Caco-2 cell monolayers is 3.4 ± 0.23 10^−6 cm/s. Also, the solubility (usually how much of the substance goes into solution per volume) at 1 h in data set [4] (setting [7]) is > 2000 µg/mL and > 4500 µM. Moreover, the solubility was more than 2000 µg/mL in data set [4] (setting [8]); > 2000 µg/mL and > 4500 µM in data set [4] (FaSSIF-V2, 37 °C, fassif); > 2000 µg/mL and > 4500 µM in data set [4] (FeSSIF-V2, 37 °C, fessif); > 2000 µg/mL and > 4500 µM in data set [4] (setting [9]).

For `CS(=O)(=O)c1ccc(-c2cnc(N)c(-c3ccc(C(F)(F)F)nc3)c2)cc1` [MMV048], the intrinsic clearance (microsomal CLint) at 1 µM in data set [1] (setting [6]) is less than 7 µL/min/mg. Also, the fraction unbound at […], 500 ng/mL in data set [2] (isolated protein, pH 7.4) was 0.46 ± 0.022. The pKa in data set [5] (basic pKa (B)) is 4 ± 0.07. Besides, the basolateral-to-apical permeability (Papp B→A) in data set [3] (Caco-2, pH 7.4) was found to be 53 ± 1.9 ×10⁻⁶ cm/s. In data set [3], this compound displayed an apical-to-basolateral permeability (Papp A→B) of 41 ± 2.1 ×10⁻⁶ cm/s. Also, the solubility at 1 h in data set [4] (setting [7]) is 1200 µg/mL and 3040 µM. For the same compound, the solubility in data set [4] (FaSSIF-V2, 37 °C, fassif) was 6.73 µg/mL and 17.1 µM; in data set [4] (FeSSIF-V2, 37 °C, fessif) it was 7.47 µg/mL and 19 µM; in data set [4] (setting [9]), 4.52 µg/mL and 11.5 µM.

The compound `C[C@H]1[C@H](OC(=O)CCC(=O)O)O[C@@H]2O[C@@]3(C)CC[C@H]4[C@H](C)CC[C@@H]1[C@@]24OO3` [Artesunate] showed a microsomal CLint at 1 µM in data set [1] (microsomes) of 146 µL/min/mg. Also, the fraction unbound at […], 500 ng/mL in data set [2] (Albumax medium, pH 7.4, instability evident, estimate only) was 0.14 ± 0.007. Also, the pKa in data set [5] (acidic pKa (A)) amounted to 4.7 ± 0.04. The same compound returned a Papp B→A in data set [3] (Caco-2, pH 7.4) of 2.8 ± 0.48 ×10⁻⁶ cm/s. Further, the Papp A→B in data set [3] stood at 3.4 ×10⁻⁶ cm/s. In the data set with Caco-2 cell monolayers, the “A–B Papp” value is reported as 2.9 10^−6 cm/s. Besides, the solubility in data set [4] (37 °C, fassgf or other biorelevant) is 321 µg/mL (≈ 835 µM); in data set [4] (FaSSIF-V2, 37 °C, fassif) it was 1690 µg/mL and 4390 µM; in data set [4] (FeSSIF-V2, 37 °C, fessif) it was 1720 µg/mL and 4490 µM; in data set [4] (setting [9]) it was 1680 µg/mL and 4370 µM. The same compound yielded a solubility at 1 h in data set [4] (setting [7]) of 835 µM (≈ 321 µg/mL).

Consider `[H]/N=C(\N/C(=N/[H])Nc1ccc(Cl)cc1)NC(C)C` [Proguanil], for which the microsomal CLint at 1 µM in data set [1] (setting [6]) was less than 7 µL/min/mg. Besides, in data set [2] (isolated protein, pH 7.4), the free fraction (fraction unbound) at […], 500 ng/mL is 0.8 ± 0.021. The Literature fu with human plasma is listed as 0.25. In addition, in data set [3] (Caco-2, pH 7.4), the Papp B→A came out at 7.9 ± 0.51 ×10⁻⁶ cm/s. The apical-to-basolateral permeability (Papp A→B) in data set [3] is less than 5 ×10⁻⁶ cm/s. In addition, in the data set with Caco-2 cell monolayers, the “A–B Papp” value is reported as 3.5 ± 0.75 10^−6 cm/s. Also, the solubility at 1 h in data set [4] (setting [7]) was > 2000 µg/mL and > 7880 µM. The solubility in data set [4] (setting [8]) is more than 2000 µg/mL; in data set [4] (FaSSIF-V2, 37 °C, fassif) it was > 2000 µg/mL and > 7880 µM; in data set [4] (FeSSIF-V2, 37 °C, fessif) it was > 2000 µg/mL and > 7880 µM; in data set [4] (setting [9]), > 2000 µg/mL and > 7880 µM.

As to `C[C@H]1[C@H](N2CCS(=O)(=O)CC2)O[C@@H]2O[C@@]3(C)CC[C@H]4[C@H](C)CC[C@@H]1[C@@]24OO3` [Artemisone], the intrinsic clearance (microsomal CLint) at 1 µM in data set [1] (setting [6]) came out at 97.7 µL/min/mg. The compound also gave a fraction unbound at […], 500 ng/mL in data set [2] (isolated protein, pH 7.4) of 0.46 ± 0.013. The “Measured pKa” value in data set [5] (basic pKa (B)) is listed as “no ionizations could be detected”. The compound also displayed a basolateral-to-apical permeability (Papp B→A) in data set [3] (Caco-2, pH 7.4) of 47 ± 1.7 ×10⁻⁶ cm/s. Further, in data set [3] (Caco-2, pH 7.4), the efflux ratio (in general, a quotient of directional permeabilities that is used to spot active efflux) turned out to be 0.8. In data set [3], this compound showed a Papp A→B of 58.8 ×10⁻⁶ cm/s. Further, the “A–B Papp” value in the data set on Caco-2 cell monolayers is 64.5 10^−6 cm/s. In data set [4] (setting [7]), the solubility at 1 h is 89.1 µg/mL and 222 µM. Besides, the solubility in data set [4] (FaSSIF-V2, 37 °C, fassif) is 115 µg/mL and 286 µM; in data set [4] (FeSSIF-V2, 37 °C, fessif), 278 µg/mL and 692 µM; in data set [4] (setting [9]), 86.1 µg/mL and 214 µM.

In the case of `CC[C@H]1OC(=O)[C@H](C)[C@@H](O[C@H]2C[C@@](C)(OC)[C@@H](O)[C@H](C)O2)[C@H](C)[C@@H](O[C@@H]2O[C@H](C)C[C@H](N(C)C)[C@H]2O)[C@](C)(O)C[C@@H](C)CN(C)[C@H](C)[C@@H](O)[C@]1(C)O` [Azithromycin], the microsomal CLint at 1 µM in data set [1] (setting [6]) is less than 7 µL/min/mg. In data set [2] (isolated protein, pH 7.4), this compound yielded a fraction unbound at […], 500 ng/mL of 0.76 ± 0.065. In addition, the Literature fu in the data set on human plasma was 0.5-0.88. Also, the basolateral-to-apical permeability (Papp B→A) in data set [3] (Caco-2, pH 7.4) is 13 ± 3.9 ×10⁻⁶ cm/s. Also, the “A–B Papp” value in the data set on Caco-2 cell monolayers is 0.37 10^−6 cm/s and 0.38 10^−6 cm/s; in the data set on Caco-2 cell monolayers (listed as azithromycin), < 5 10^−6 cm/s. The solubility at 1 h in data set [4] (setting [7]) is 1180 µg/mL and 1570 µM. For the same compound, the solubility in data set [4] (FaSSIF-V2, 37 °C, fassif) is 1440 µg/mL and 1930 µM; in data set [4] (FeSSIF-V2, 37 °C, fessif), > 2000 µg/mL and > 2670 µM; in data set [4] (setting [9]) it was > 2000 µg/mL and > 2670 µM.
